Source: ChEMBL document CHEMBL1201862, “PubChem BioAssay data set” (2004)
Calls of active or inactive are those of the source. Cut-off read from the data, not from the text of the source: actives have a measured IC50 and inactives only a lower limit.

Molecular target: Envelope glycoprotein gp160 (Human immunodeficiency virus 1, UniProt Q6QLK5)
Experiment: inhibitors of HIV fusion peptide binding, primary screen, biochemical, uHTS, fluorescence dequenching (AID 1986)

Envelope glycoprotein gp160, sequence (Q6QLK5 whole entry, the tested form may be a part): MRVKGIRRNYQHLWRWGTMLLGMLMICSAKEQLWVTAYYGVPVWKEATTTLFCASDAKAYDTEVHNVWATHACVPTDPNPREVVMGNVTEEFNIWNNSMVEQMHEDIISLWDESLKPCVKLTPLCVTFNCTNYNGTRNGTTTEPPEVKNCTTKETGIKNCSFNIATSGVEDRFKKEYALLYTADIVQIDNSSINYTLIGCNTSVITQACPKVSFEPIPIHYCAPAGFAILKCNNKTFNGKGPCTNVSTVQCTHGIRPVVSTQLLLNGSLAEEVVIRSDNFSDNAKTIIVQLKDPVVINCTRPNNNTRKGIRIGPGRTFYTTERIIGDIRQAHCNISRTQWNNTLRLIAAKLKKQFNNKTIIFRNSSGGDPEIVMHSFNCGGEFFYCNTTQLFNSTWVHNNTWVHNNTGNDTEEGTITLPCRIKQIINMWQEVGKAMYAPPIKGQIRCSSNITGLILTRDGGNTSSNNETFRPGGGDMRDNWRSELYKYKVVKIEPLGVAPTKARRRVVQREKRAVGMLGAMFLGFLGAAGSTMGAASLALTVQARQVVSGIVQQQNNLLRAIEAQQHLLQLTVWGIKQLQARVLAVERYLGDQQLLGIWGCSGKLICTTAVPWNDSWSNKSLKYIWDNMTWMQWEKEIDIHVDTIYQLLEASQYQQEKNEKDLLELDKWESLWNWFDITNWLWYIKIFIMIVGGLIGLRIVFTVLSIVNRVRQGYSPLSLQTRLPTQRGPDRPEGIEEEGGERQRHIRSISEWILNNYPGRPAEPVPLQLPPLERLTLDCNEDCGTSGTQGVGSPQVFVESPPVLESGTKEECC

Row | Structure (SMILES) | IC50
1 | COc1cc([N+](=O)[O-])cc(/C=C2/SC(=S)N(Cc3ccccc3)C2=O)c1O | 32.6 µM (active)
2 | CC(=O)Nc1sc(/C(C#N)=C/c2ccc(Cl)c(Cl)c2)nc1-c1ccc(C)cc1 | 2.04 µM (active)
3 | O=C(O)c1ccc(N2C(=O)/C(=C/c3ccc(-c4ccc([N+](=O)[O-])cc4)o3)C=C2c2ccccc2)cc1 | 9.9 µM (active)
4 | CCOC(=O)C1=C(C)N=c2s/c(=C\c3ccc(OCC(=O)O)cc3)c(=O)n2C1c1ccc(Cl)cc1 (centres undefined) | 13.8 µM (active)
